# Reference: PubChem BioAssay (NCI)
# “And” between values parts separate entries of the source, which are not always exact repeats. Equal entries are not always repeated.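 A five-concentration, 48-hour dose response in 96-well plates underlies each endpoint, interpolated linearly between surrounding concentrations. The concentration for 50% growth inhibition is given as GI50. The concentration for full growth arrest is given as TGI.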 The source made the active and inactive calls. Rule as the data show it: active = GI50 below about 0.43 µM; inactive = the rest.
# Key:
# Test in all cases: NCI tumour cell line growth inhibition, 48 h
# MDA-N = system: MDA-N
# DMS 114 small cell lung = system: DMS 114 small cell lung
# DMS 273 small cell lung = system: DMS 273 small cell lung
# HOP-18 NSCLC = system: HOP-18 NSCLC
# KM20L2 colon = system: KM20L2 colon
# LXFL 529 NSCLC = system: LXFL 529 NSCLC
# M19-MEL melanoma = system: M19-MEL melanoma
# SNB-78 CNS = system: SNB-78 CNS
# XF 498 CNS = system: XF 498 CNS
SMILES,TGI (MDA-N),TGI (DMS 114 small cell lung),TGI (DMS 273 small cell lung),TGI (HOP-18 NSCLC),TGI (KM20L2 colon),TGI (LXFL 529 NSCLC),TGI (M19-MEL melanoma),TGI (SNB-78 CNS),TGI (XF 498 CNS) [µM],further results
CC(=O)OC12c3ccccc3-c3ccccc3C1C(C(=O)O)C2(Cl)C(=O)O (stereo unspecified),> 10 µM,,,,,,,,,
COc1ccc2c(Cc3c4ccccc4cc4ccccc34)cncc2c1O,4.55 µM,,,,,,,,,
CC1(C)CCCC(C)(C2CCC3(C)C2C(O)CC2C4(C)CCC(O)C(C)(C)C4C(O)CC23C)O1 (stereo unspecified),30.8 µM,,,,,,,,,
Cc1cc(=O)n2c3c(c4c(cc13)c(CO)cc(=O)n4C)OC2,,47.5 µM,> 100 µM,62.6 µM,> 100 µM,34 µM,46.4 µM,> 100 µM,32.4,
N.N.O=P([O-])([O-])CN(CCN(CP(=O)([O-])[O-])CP(=O)([O-])[O-])CP(=O)([O-])[O-].[Pt+2],,,,,> 100 µM,,,,,GI50 (KM20L2 colon): > 100 µM
O=C(/C=C/c1ccccc1Cl)c1cccc2ccccc12,,15.2 µM,31.6 µM,29.7 µM,19.6 µM,11.9 µM,23.5 µM,44.8 µM,,
CCOC(=O)C1=C(C)N(Cc2ccccc2)C(=O)C1CC#N (stereo unspecified),,> 100 µM,> 100 µM,> 100 µM,> 100 µM,> 100 µM,> 100 µM,> 100 µM,,
CC(C)=CCC1=C(OCC(=O)O)C(=O)c2ccccc2C1=O,34.8 µM,,,,,,,,,
COC(C(=O)C(O)C(C)O)C1Cc2cc3cc(OC4CC(OC5CC(O)C(O)C(C)O5)C(O)C(C)O4)c(C)c(O)c3c(O)c2C(=O)C1OC1CC(OC2CC(O)C(OC3CC(C)(O)C(O)C(C)O3)C(C)O2)C(O)C(C)O1 (stereo unspecified),128 ng/mL and 328 ng/mL,0.479 ng/mL,2.4 ng/mL,,,,0.31 ng/mL,21.4 ng/mL,,GI50 (DMS 114 small cell lung): 0.0556 ng/mL; GI50 (DMS 273 small cell lung): 0.0407 ng/mL; outcome (HOP-18 NSCLC): inactive; outcome (KM20L2 colon): inactive; GI50 (M19-MEL melanoma): 0.0253 ng/mL; GI50 (MDA-N): 13.9 ng/mL and 25.8 ng/mL; GI50 (SNB-78 CNS): 0.0424 ng/mL; outcome (XF 498 CNS): inactive
C[C@]12CCC[C@H](O)[C@H]1C[C@H](CO)CC2,,,> 100 µM,> 100 µM,> 100 µM,> 100 µM,> 100 µM,,> 100,
COC(=O)C[CH2][Ge]([CH3])([CH3])[S]c1ccccc1,,,> 100 µM,> 100 µM,> 100 µM,81.1 µM,> 100 µM,> 100 µM,,GI50 (DMS 273 small cell lung): 42.6 µM; GI50 (HOP-18 NSCLC): > 100 µM; GI50 (KM20L2 colon): 38.4 µM; GI50 (LXFL 529 NSCLC): 24 µM; GI50 (M19-MEL melanoma): 36.8 µM; GI50 (SNB-78 CNS): 59.5 µM
NC1=NN(c2ccccc2)C(=O)C1/C(=N\NC(=O)c1cc2ccccc2cc1O)C(=O)Nc1cccc(C(F)(F)F)c1 (stereo unspecified),,83 µM,,> 100 µM,> 100 µM,> 100 µM,> 100 µM,> 100 µM,> 100,
COc1ccc2c(c1)[n+]([O-])c(-c1ccc(Br)cc1)c(N)[n+]2[O-],,57.9 µM,68.9 µM,> 100 µM,> 100 µM,,> 100 µM,> 100 µM,> 100,
CC1(c2cccc(N)c2)C2C(=O)NC(=O)C1C(=O)NC2=O (stereo unspecified),,96.9 µM,73.3 µM,,> 100 µM,> 100 µM,> 100 µM,> 100 µM,64.4,
N#Cc1cc([N+](=O)[O-])ccc1NC(=O)C(F)(F)F,,> 56.1 µM,> 100 µM,> 100 µM,> 100 µM,> 100 µM,> 100 µM,> 100 µM,> 100,
CCC(CCC(C)C1CCC2C3CC=C4CC(OC5OC(CO)C(O)C(O)C5O)CCC4(C)C3CCC12C)C(C)C (stereo unspecified),> 100 µM,,,,,,,,,
NC(=S)N/N=C/c1ccc(N)cn1,> 10 µM,,,,,,,,,
C/C=C(/CCC1NCCC2c3ccccc3NC12)[Si](C)(C)C (stereo unspecified),,14.3 µM,21.7 µM,26.7 µM,16.2 µM,13 µM,24.8 µM,26.2 µM,12.1,
COc1cccc(NC(=O)C(C)(C)C)c1SSc1c(NC(=O)C(C)(C)C)cccc1OC,,,> 100 µM,> 100 µM,> 100 µM,29.9 µM,> 100 µM,51.2 µM,35.7,
C1COCCOCCOCCOCCOCCO1.[Cl][Sn]([Cl])([c]1ccccc1)[c]1ccccc1,,,,,18.2 µM,,,,,GI50 (KM20L2 colon): 7.02 µM
Cn1c(=O)c2ccc(-c3ccc(Br)cc3)nc2n(C)c1=O,,> 100 µM,> 100 µM,> 100 µM,,> 100 µM,> 100 µM,> 100 µM,> 100,
C/C(=N\NC(=S)N1CCN(C2CCCCCC2)CC1)c1ccccn1,,0.0461 µM and < 0.0408 µM,8.26 µM and 2.19 µM,7.89 µM,8.96 µM and 2.07 µM,2.67 µM,3.37 µM,19 µM,,GI50 (DMS 114 small cell lung): < 0.001 µM; GI50 (DMS 273 small cell lung): < 0.001 µM; GI50 (HOP-18 NSCLC): 0.422 µM; GI50 (KM20L2 colon): 3.83 µM; GI50 (M19-MEL melanoma): 0.928 µM; GI50 (SNB-78 CNS): 4.58 µM

SMILES,TGI (MDA-N),TGI (DMS 114 small cell lung),TGI (DMS 273 small cell lung),TGI (HOP-18 NSCLC),TGI (KM20L2 colon),TGI (LXFL 529 NSCLC),TGI (M19-MEL melanoma),TGI (SNB-78 CNS),TGI (XF 498 CNS) [µM],further results
NC(=O)c1ncn(CCN2CCN(C(=O)NCCCCCCNC(=O)N3CCN(CCn4cnc(C(N)=O)c4N)CC3)CC2)c1N,,,> 100 µM,> 100 µM,> 100 µM,> 100 µM,,> 100 µM,> 100,
O=S1(=O)NC2CCC3NS(=O)(=O)NC4CCC(N1)N4S(=O)(=O)N23 (stereo unspecified),> 100 µM,,,,,,,,,
CSCC[C@H](NC(=O)[C@H](CC(C)C)NC(=O)[C@@H](Cc1ccccc1)NC(=O)CNC(=O)[C@@H](NC(=O)[C@H](C)NC(=O)[C@H](Cc1c[nH]c2ccccc12)NC(=O)[C@H](CCC(N)=O)NC(=O)[C@H](N)CC(N)=O)C(C)C)C(N)=O,> 12.5 µM,,,,,,,,,
C=C1COC(O)(C2OCOC(C3CC(=O)NC(=O)C3)C2O)C1C (stereo unspecified),0.0289 µM,0.0271 µM and 0.0437 µM,0.0283 µM and 0.0417 µM,0.035 µM and 0.0686 µM,0.0281 µM and 0.0721 µM,0.0897 µM and 0.101 µM,0.00849 µM and 0.0215 µM,0.0971 µM and 0.0358 µM,,GI50 (HOP-18 NSCLC): 0.0112 µM
COC(=O)N/N=C(\C(=O)Nc1cccc([N+](=O)[O-])c1)c1nc2ccc([N+](=O)[O-])cc2[nH]c1=O,,40.1 µM,,> 100 µM,67.3 µM,> 100 µM,> 100 µM,,> 100,
Cc1ccc(NC(=O)CC/C(CC(=O)C(C)(C)C)=N/NC(=O)C[N+](C)(C)C)cc1C,,> 100 µM,,> 100 µM,> 100 µM,> 100 µM,> 100 µM,> 100 µM,,
Cc1cc2nc3ccc(=[N+](C)C)cc-3sc2cc1N,2.35 µM,2.79 µM,12.2 µM,36.6 µM,41.5 µM,18.1 µM,0.354 µM,54.9 µM,,
CSc1nc2c(nc(N)n2C2OC(COC(C)=O)C(OC(C)=O)C(OC(C)=O)C2OC(C)=O)c(=O)n1C (stereo unspecified),,> 100 µM,,> 100 µM,> 100 µM,> 100 µM,,> 100 µM,> 100,
N#CC1(Nc2ccc(-c3ccc(NC4(C#N)CCCC4)cc3)cc2)CCCC1,> 100 µM,,,,,,,,,
NS(=O)(=O)c1ccc(NCc2cnc3ccccc3n2)cc1,> 100 µM,,,,,,,,,
c1ccc(CN2CCC3(CC2)SSC2(CCN(Cc4ccccc4)CC2)SS3)cc1,> 100 µM,,,,,,,,,
CC(=O)[CH-]C(=O)c1ccccc1.CC(=O)[CH-]C(=O)c1ccccc1.CC1(C)OCC(C2OC3OC(C)(C)OC3C2[O-])O1.CC1(C)OCC(C2OC3OC(C)(C)OC3C2[O-])O1.[Ti+4] (stereo unspecified),,,,,> 100 µM,24 µM,> 100 µM,,,GI50 (KM20L2 colon): 29.6 µM; GI50 (LXFL 529 NSCLC): 11.5 µM; GI50 (M19-MEL melanoma): 4.91 µM
COc1cc2oc(-c3ccc(O)cc3O)c(CC=C(C)C)c(=O)c2c(O)c1/C=C/C(C)C,8.34 µM,,,,,,,,,
COC(=O)C1=CC2CC1C(S(=O)(=O)c1ccccc1)C2S(=O)(=O)c1ccccc1 (stereo unspecified),,36 µM,23.4 µM,30.5 µM,33.2 µM,18.6 µM,42.2 µM,,,
CCOc1ccc2c(C)cc(=O)oc2c1,> 100 µM,,,,,,,,,
CC(=O)[CH-]C(=O)c1ccccc1.CC(=O)[CH-]C(=O)c1ccccc1.CC[C@H](/C=C/C(C)[C@H]1CCC2[C@@H]3CC=C4C[C@@H]([O-])CC[C@]4(C)C3CC[C@@]21C)C(C)C.CC[O-].[Ti+4] (stereo partly specified),,,> 100 µM,,> 100 µM,> 100 µM,> 100 µM,,,GI50 (DMS 273 small cell lung): > 100 µM; GI50 (KM20L2 colon): > 100 µM; GI50 (LXFL 529 NSCLC): > 100 µM; GI50 (M19-MEL melanoma): > 100 µM
O=S(=O)(c1ccc(Br)cc1)N1CCN(S(=O)(=O)c2ccc(Br)cc2)CC1,> 100 µM,,,,,,,,,
O=C(CC1(O)C(=O)Nc2ccccc21)c1ccc(F)cc1 (stereo unspecified),,> 100 µM,> 100 µM,,> 100 µM,> 100 µM,> 100 µM,> 100 µM,> 100,
C/C(=N\NS(=O)(=O)c1ccc(C)cc1)c1cc2ccccc2n1C,,> 100 µM,> 100 µM,,> 100 µM,> 100 µM,> 100 µM,,,
CN(C)CCC(CCN(C)C)=NOC(=O)c1ccccc1,,> 100 µM,> 100 µM,> 100 µM,> 100 µM,> 100 µM,> 100 µM,,> 100,
C[C@]12CC[C@H]3[C@@H](CCC4=CC(=O)CC[C@@]43C)[C@@H]1CC[C@@H]2C(=O)COS(=O)(=O)c1ccc(Br)cc1,33.8 µM,,,,,,,,,
